Values quoted from earlier work as cited in patent US20130004545A1, “SLOW RELEASE PHARMACEUTICAL COMPOSITIONS OF ILOPERIDONE” (LUPIN LIMITED, priority 2009, published 2013).

Assays:
[1] = for t1/2: metabolite of iloperidone
plasma proteins = details: administered orally
5-HT2A receptors = 5-HT2A receptors (Homo sapiens, UniProt P28223)
5-HT2A receptors, sequence (P28223 whole entry): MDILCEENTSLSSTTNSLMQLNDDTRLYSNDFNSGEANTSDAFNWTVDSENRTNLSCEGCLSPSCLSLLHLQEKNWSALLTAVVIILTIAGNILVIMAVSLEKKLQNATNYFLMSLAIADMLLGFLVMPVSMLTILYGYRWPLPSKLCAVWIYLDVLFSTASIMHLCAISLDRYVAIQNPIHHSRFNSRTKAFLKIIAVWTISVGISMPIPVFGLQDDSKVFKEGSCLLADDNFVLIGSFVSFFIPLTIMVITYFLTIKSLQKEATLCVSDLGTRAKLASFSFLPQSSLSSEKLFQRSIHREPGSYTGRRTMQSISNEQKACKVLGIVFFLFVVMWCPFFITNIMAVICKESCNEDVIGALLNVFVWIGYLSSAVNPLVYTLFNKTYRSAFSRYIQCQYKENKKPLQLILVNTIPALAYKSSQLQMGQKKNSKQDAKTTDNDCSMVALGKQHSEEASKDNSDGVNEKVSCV

tmax ([1]; metabolite, after oral administration of parent active ingredient)	binding to plasma proteins (plasma proteins)	SMILES	t1/2 [1]	Plasma level relative to Iloperidone ([1]; metabolite plasma level, reported)	receptor affinity (5-HT2A receptors)
6 h		COc1cc(C(C)O)ccc1OCCCN1CCC(c2noc3cc(F)ccc23)CC1 (stereo not drawn) [Example P88]	25.6 h	approximately 1.5 times that of Iloperidone	
	highly bound to plasma proteins	COc1cc(C(C)=O)ccc1OCCCN1CCC(c2noc3cc(F)ccc23)CC1 [Iloperidone]			
		COc1cc(C(=O)O)ccc1OCCCN1CCC(c2noc3cc(F)ccc23)CC1 [Example P95, 4-[3-[4-(6-fluoro-1,2,-benzisoxazol-3-yl)-1-piperidinyl]propoxy]-3-methoxy-benzoic acid]	25.6 h		affinity for only 5-HT2A receptors
